molecular target: T1, Menin/Histone-lysine N-methyltransferase MLL (Homo sapiens, UniProt O00255); assay: Inhibition of menin (unknown origin)-fluorescein-labeled MLL1 (unknown origin) after 1 hr by fluorescence polarization assay; format: protein assay
T1 sequence (O00255 whole entry): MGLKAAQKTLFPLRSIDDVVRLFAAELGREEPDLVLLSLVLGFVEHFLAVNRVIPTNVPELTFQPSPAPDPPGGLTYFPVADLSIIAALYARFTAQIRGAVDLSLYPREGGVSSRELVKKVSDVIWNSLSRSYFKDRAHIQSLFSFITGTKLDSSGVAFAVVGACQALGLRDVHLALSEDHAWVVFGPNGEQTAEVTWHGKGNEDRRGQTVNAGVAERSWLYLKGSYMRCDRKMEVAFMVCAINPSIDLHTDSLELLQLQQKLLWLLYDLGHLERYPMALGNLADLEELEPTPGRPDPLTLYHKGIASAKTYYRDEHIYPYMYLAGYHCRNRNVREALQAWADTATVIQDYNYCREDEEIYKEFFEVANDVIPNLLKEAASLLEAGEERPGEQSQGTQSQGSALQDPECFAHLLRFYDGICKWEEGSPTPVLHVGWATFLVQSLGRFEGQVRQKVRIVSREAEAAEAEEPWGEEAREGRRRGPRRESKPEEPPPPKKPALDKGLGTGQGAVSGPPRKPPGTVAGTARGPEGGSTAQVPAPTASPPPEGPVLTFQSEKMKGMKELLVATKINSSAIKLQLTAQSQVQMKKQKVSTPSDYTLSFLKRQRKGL
T1 sequence (Q03164 1-2718 partner limits assumed): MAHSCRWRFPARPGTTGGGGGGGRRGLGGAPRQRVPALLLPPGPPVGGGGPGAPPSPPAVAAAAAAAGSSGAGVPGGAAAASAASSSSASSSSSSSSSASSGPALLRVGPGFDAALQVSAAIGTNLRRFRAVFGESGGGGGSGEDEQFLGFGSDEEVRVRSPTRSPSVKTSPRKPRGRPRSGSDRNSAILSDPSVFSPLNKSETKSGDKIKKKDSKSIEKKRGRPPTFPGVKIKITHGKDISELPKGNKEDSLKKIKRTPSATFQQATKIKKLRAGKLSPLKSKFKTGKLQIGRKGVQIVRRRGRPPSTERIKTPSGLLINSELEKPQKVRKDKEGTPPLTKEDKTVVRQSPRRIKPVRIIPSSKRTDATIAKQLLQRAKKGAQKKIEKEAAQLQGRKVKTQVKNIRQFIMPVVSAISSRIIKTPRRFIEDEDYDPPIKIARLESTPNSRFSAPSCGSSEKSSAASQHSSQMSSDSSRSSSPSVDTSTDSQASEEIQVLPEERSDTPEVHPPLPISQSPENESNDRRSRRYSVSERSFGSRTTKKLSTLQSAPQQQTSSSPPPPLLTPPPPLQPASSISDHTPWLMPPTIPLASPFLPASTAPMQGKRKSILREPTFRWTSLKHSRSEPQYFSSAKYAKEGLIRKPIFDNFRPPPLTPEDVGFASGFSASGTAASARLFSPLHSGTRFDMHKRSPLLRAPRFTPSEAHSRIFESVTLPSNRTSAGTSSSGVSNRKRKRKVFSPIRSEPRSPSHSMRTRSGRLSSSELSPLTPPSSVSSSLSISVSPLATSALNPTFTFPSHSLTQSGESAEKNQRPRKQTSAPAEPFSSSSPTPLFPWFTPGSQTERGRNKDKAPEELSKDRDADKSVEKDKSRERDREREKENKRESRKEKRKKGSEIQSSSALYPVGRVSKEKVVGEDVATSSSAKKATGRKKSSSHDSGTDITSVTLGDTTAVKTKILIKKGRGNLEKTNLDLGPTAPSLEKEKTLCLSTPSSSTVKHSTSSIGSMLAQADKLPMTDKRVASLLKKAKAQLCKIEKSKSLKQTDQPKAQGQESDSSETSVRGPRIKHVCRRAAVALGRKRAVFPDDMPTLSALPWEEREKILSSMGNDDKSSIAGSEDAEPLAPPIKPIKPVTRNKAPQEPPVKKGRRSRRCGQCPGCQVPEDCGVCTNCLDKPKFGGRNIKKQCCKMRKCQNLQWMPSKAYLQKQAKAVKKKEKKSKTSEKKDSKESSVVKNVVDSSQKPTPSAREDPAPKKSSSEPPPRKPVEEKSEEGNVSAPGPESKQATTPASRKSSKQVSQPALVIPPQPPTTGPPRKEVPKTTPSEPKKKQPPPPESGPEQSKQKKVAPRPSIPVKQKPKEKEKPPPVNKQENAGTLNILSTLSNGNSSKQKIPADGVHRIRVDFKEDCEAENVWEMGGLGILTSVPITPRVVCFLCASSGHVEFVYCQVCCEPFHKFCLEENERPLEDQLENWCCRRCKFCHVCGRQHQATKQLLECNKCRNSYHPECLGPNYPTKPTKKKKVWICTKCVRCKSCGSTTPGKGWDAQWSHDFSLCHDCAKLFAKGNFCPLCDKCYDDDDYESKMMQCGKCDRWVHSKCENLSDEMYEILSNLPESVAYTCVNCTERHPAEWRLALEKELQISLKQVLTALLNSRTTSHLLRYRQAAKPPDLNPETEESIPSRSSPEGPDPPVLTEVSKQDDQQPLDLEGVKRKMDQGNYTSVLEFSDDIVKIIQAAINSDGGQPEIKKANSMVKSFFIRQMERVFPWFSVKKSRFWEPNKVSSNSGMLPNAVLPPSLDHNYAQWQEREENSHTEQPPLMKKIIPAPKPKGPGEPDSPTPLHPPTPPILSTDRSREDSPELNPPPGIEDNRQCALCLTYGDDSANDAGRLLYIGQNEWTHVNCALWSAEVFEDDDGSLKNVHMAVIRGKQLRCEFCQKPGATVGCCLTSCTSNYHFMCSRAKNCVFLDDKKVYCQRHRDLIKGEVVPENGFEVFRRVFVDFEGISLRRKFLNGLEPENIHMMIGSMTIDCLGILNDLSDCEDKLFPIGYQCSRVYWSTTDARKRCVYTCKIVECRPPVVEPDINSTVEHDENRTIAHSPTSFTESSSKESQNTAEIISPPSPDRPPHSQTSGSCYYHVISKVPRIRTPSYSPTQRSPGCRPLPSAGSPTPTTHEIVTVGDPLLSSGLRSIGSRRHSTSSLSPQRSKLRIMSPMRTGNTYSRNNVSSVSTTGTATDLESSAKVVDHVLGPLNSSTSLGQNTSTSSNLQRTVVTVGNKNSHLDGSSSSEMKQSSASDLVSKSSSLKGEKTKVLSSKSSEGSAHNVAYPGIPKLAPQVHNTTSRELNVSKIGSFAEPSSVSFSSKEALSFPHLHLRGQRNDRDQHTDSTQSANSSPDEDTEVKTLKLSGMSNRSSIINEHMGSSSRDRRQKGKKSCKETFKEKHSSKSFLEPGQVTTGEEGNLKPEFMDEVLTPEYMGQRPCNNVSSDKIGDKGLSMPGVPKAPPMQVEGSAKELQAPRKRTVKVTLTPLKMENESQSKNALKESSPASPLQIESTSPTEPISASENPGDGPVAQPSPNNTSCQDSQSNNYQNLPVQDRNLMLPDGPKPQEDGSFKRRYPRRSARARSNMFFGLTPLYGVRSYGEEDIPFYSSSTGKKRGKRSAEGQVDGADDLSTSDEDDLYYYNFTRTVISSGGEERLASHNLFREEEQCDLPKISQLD
T1 sequence (Q03164 2719-3969 partner limits assumed): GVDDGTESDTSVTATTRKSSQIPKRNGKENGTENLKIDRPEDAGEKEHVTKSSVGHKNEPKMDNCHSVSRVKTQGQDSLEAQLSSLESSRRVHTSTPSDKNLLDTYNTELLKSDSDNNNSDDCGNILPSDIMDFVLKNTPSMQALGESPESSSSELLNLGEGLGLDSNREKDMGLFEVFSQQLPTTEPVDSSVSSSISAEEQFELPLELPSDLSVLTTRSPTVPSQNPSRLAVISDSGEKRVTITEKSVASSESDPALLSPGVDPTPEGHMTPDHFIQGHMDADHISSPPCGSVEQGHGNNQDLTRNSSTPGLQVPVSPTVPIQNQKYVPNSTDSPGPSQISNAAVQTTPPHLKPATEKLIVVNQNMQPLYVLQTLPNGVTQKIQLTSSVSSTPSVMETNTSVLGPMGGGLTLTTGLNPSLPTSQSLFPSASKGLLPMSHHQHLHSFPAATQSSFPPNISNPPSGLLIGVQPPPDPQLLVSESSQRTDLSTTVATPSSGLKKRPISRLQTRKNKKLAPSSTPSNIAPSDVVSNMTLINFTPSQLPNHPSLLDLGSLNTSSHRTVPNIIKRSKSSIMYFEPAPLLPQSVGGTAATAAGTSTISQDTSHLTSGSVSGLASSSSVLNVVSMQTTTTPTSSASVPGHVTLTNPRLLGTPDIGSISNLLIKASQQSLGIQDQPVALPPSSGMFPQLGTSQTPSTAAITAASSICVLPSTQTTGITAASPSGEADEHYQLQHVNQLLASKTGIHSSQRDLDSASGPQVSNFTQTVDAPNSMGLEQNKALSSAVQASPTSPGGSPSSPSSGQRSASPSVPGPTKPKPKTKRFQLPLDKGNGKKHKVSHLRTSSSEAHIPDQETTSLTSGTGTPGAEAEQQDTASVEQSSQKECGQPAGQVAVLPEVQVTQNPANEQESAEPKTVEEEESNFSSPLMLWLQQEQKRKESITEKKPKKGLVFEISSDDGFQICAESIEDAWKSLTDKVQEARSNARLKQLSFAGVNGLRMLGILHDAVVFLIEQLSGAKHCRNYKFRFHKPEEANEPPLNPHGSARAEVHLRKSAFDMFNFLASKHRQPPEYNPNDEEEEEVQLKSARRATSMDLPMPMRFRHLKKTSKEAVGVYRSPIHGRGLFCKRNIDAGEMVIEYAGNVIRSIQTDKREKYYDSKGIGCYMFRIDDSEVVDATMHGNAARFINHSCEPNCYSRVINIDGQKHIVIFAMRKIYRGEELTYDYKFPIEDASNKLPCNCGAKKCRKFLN

IC50 | Compound
1.4 µM | FC(F)(F)Cc1cc2c(N3CCN(c4nnc(C(F)(F)F)o4)CC3)ncnc2s1
0.65 µM | CCCc1cc2c(N3CCN(c4nnc(C(F)(F)F)s4)CC3)ncnc2s1
200 µM | CCCc1cc2c(N3CCN(c4nnc(C(F)(F)F)[nH]4)CC3)ncnc2s1
1.3 µM | CCc1cc2c(N3CCN(c4nnc(C(F)(F)F)s4)CC3)ncnc2s1
2 µM | FC(F)(F)c1nnc(N2CCN(c3ncnc4sc(C5CC5)cc34)CC2)s1
0.193 µM | CC1(C)CN=C(N2CCN(c3ncnc4sc(CCCl)cc34)CC2)S1
20 µM | CSc1cc2c(N3CCN(c4nnc(C(F)(F)F)s4)CC3)ncnc2s1

molecular target: T1, Menin/Histone-lysine N-methyltransferase MLL; assay: Inhibition of full length human menin-MLL1 (4 to 43 residues) (unknown origin) protein-protein interaction after 1 hr by fluorescence polarization assay

IC50 | Compound
0.765 µM | CC(c1cc2c(N3CCN(C4=NCC(C)(C)S4)CC3)ncnc2s1)C(F)(F)F (stereo not given)

molecular target: T1, Menin/Histone-lysine N-methyltransferase MLL; assay: Inhibition of menin (unknown origin)-FITC-tagged MLL1 (unknown origin) protein-protein interaction after 1 hr by fluorescence polarization assay

IC50 | Compound
0.75 µM | CCCCc1cc2c(N3CCN(C4=NCC(C)(C)S4)CC3)ncnc2s1
52 µM | CCc1cc2c(N3CCN(Cc4ccccc4)CC3)ncnc2s1
58 µM | CCc1cc2c(N3CCN(c4ccccn4)CC3)ncnc2s1
46 µM | CCc1cc2c(N3CCN(c4nccs4)CC3)ncnc2s1
193 µM | CCc1cc2c(N3CCN(c4nncs4)CC3)ncnc2s1
87 µM | CCc1cc2c(N3CCN(c4ncccn4)CC3)ncnc2s1
14 µM | CCc1cc2c(N3CCN(Cc4ccc(Cl)cc4)CC3)ncnc2s1

Reference: ChEMBL document CHEMBL4261532, “Theoretical models of inhibitory activity for inhibitors of protein-protein interactions: targeting menin-mixed lineage leukemia with small molecules” (Medchemcomm, 2017)
